In general, inhibition refers to the drop in the measured response relative to a control, in per cent. Usually IC50 stands for the concentration at which inhibition is half-maximal. Higher therefore signals lower potency.

Molecules are shown by their SMILES.

The source of these data is patent publication US20260374793A1, “MITOCHONDRIA SPECIFIC TRANSCRIPTION INHIBITORS” (LUNELLA BIOTECH, INC., priority 2023, published 2026).

In data set [1] the test system is MCF-7 cells. Kind of data set: 3D anchorage independent growth (mammosphere formation) assay, MCF-7. Format: cell-based, human. The source says:
The following paragraphs summarize data for Compound [I]. It should be appreciated that preliminary results for other embodiments are consistent with the results for Compound [I], but analysis is ongoing. FIGS. 1A-1C show mammosphere formation results, SRB assay results on MCF-7 cells, and SRB assay results on BJ1-hTERT cells, for different concentrations of Compound [I]. The asterisks indicate P-value, with ** indicating P<0.01, *** indicating P<0.001, and **** indicating P <0.0001. […] FIGS. 1B and 1C show results of the SRB assay for (B) MCF-7 cells and (C) hTERT-BJ1 cells.
(§1) FIGS. 5A and 5B show IC50 curves for Compound [I] calculated using GraphPad Prism. The results are based on mammosphere formation assay of Compound [I] on both colonies and spheres, for MCF-7 cells (FIG. 5A), and for MDA-MB-231 cells (FIG. 5B).
(§2) 3D Anchorage Independent Growth Assay: This assay is also referred to as the mammosphere formation assay. A single-cell suspension was prepared using enzymatic, and manual disaggregation (25-g needle). Then, cells were plated at a density of 500 cells/cm^2 in mammosphere medium (DMEM-F12+1× B-27 Plus Supplement+20 ng/ml EGF+Pen/Strep) under non-adherent conditions, in culture dishes pre-coated with (2-hydroxyethylmethacrylate) (poly-HEMA, Sigma Aldrich Inc.), called “mammosphere plates.” Cells were grown for 5 days and maintained in a humidified incubator at 37 °C. After 5 days of culture, 3D-mammospheres >50 μm were counted using an eye piece (“graticule”), and the percentage of cells plated which formed spheres was calculated and is referred to as percent mammosphere formation, and was normalized to one (1=100% MFE). 3D mammosphere formation efficiency (MFE) was analyzed in both the ATP-low and ATP-high sub-populations of cells. All 3D mammosphere experiments were performed in triplicate, at least 3 times independently.

Data set [2] relates to MCF-7 cells. The data set can be described thus: SRB cell viability assay, MCF-7. Format: cell-based. Particulars: Homo sapiens, MCF7, cytotoxic starting at, FIG. 1B, read-out: concentration at which cytotoxicity starts. The source says: (§3) The mitochondria specific transcription inhibitor (MSTI) compounds disclosed herein represent a new class of compounds having exceptional selectivity and activity towards cancer cells. Embodiments of the MSTI compounds disclosed herein may be used as therapeutic agent to selectively eradicate CSCs for treating and/or preventing tumor recurrence and/or metastasis. […] This assay measures the amount of residual protein that adheres to tissue culture dishes and is a surrogate marker of cell viability.
(§4) Reagents and Model Cell Lines: It should be apparent that other cell lines may be used without departing from the present approach. The human breast adenocarcinoma cell line MCF-7 was from the American Type Culture Collection (ATCC). hTERT-BJ1 cells were from Clontech, Inc. MCF-7 and hTERT-BJ 1 cells were grown in DMEM supplemented with 10% fetal bovine serum, GlutaMAX and 1% penicillin-streptomycin and incubated at 37C in a humidified 5% C02 incubator. The medium was changed 2-3 times/week.
(§5) The present approach includes methods of confirming cell viability. Persons of skill in the art may select one or more methods for confirming cell viability suitable for the particular embodiment. […] Finally, the protein-bound dye was dissolved in a 10 mM Tris, pH 8.8 solution and read using the plate reader at 540-nm. […]

Data set [3] deals with MCF-7 cells. The data set can be described thus: 2D colony formation, MCF-7. Format: cell-based, human.
Text: FIGS. 2A and 2B show the effect of Compound [I] at different concentrations on MCF-7 colony formation (A) in petri dishes, and (B) expressed in terms of colony formation relative to the control.
as §1

Data set [4] can be described thus: SRB cell viability assay, hTERT-BJ1. Format: cell-based. The following applies: human, hTERT-BJ1 cells, cytotoxic starting at about, FIG. 1C, read-out: concentration at which cytotoxicity starts.
Text: as §3, §4, §5

Data set [5] relates to MDA-MB-231 cells. Kind of data set: 2D colony formation, MDA-MB-231. Format: cell-based.
Text: FIGS. 4A and 4B show the effect of Compound [I] at different concentrations on MDA-MB-231 colony formation (A) representative phase images of 2D-colonies, and (B) expressed in terms of colony formation relative to the control. […] Bar graphs are shown as the mean±SEM; t-test, two-tailed test: **** P<0.0001.
as §1

A short description of data set [6]: In vivo chicken embryo toxicity assessment (CAM assay). The following applies: chicken, embryo.
In data set [7] the test system is MDA-MB-231 cells. Kind of data set: 3D anchorage independent growth (mammosphere formation) assay, MDA-MB-231. Format: cell-based. The procedure:
Bar graphs are shown as the mean±SEM; t-test, two-tailed test: * P<0.05, ** P<0.01, **** P<0.0001.
as §1, §2

Data set [8] has as its system MDA-MB-231 cells. The data set can be described thus: CAM assay in chicken eggs, spontaneous tumor metastasis (qPCR of human Alu sequences). Format: in vivo. The following applies: daily for 8 days, Lower CAM, FIG. 8B. The method, then: The CAM assay was used in chicken eggs to quantitatively measure spontaneous tumor metastasis in MDA-MB-231 cells. An inoculum of 1×10^6 MDA-MB-231 cells was added onto the Upper CAM of each egg on Day 9 and then eggs were then randomized into groups. On day 10, tumors were detectable and they were then treated daily for 8 days, with vehicle alone (1% DMSO in PBS), or Compound [I]. After 8 days of drug administration, the Lower CAM was collected to evaluate the number of metastatic cells and analyzed by qPCR with specific primers for Human Alu sequences. […] Bar graph is shown as the mean±SEM; t-test, two tailed test: ns P >0.05, ** P <0.01.
(Quantitative PCR measures a nucleic acid by following its amplification.)

Data set [9] has as its system MCF-7 cells. The data set can be described thus: Seahorse XF96 oxygen consumption rate (OCR), mitochondrial respiration, MCF-7. The format is cell-based, human. The method, then: FIGS. 6A-6D show mitochondrial respiration, basal respiration, maximal respiration, and ATP production, respectively, for different concentrations of Compound [I] on MCF-7 cells. The metabolic profile MCF-7 was performed using the Seahorse XF96 Analyzer after 6 days of treatment with Compound [I].

The next data set concerns chicken embryo. The data set can be described thus: In vivo chicken embryo toxicity assessment (CAM assay).
The test system of data set [10] is MCF-7 cells. The data set can be described thus: Extracellular acidification rate (ECAR), glycolytic function, MCF-7. Format: cell-based, human. The source says:
FIGS. 7A-7D show glycolytic function, glycolysis, glycolytic capacity, and glycolytic reserve, respectively, for different concentrations of Compound [I] on MCF-7 cells.

In data set [11] the test system is MDA-MB-231 cells. Kind of data set: Chorio-allantoic membrane (CAM) assay in chicken eggs, tumor growth. The format is in vivo. Particulars: daily for 8 days; tumors weighed day E18; FIG. 8A. The method, then: The well-established chorio-allantoic membrane (CAM) assay in chicken eggs were used to quantitatively measure tumor growth in MDA-MB-231 cells. An inoculum of 1×10^6 MDA-MB-231 cells was added onto the Upper CAM of each egg on Day 9 and then eggs were then randomized into groups. On day 10, tumors were detectable and were then treated daily for 8 days with vehicle alone (1% DMSO in PBS), or Compound [I]. After 8 days of drug administration, on day E18, all tumors were weighed. […] Bar graphs are shown as the mean±SEM; t-test, two tailed test: * P<0.05, **** P<0.0001.

The subject of data set [12] is mitochondrial RNA polymerase (POLRMT). The following applies: as a POLRMT inhibitor; cited from earlier work.
Data set [13] relates to human cancer cell xenografts. The following applies: oral; cited from earlier work.
The next data set concerns mice. The following applies: oral; four-week trial in mice; cited from earlier work.

In the case of `CCN(CC(=O)NCCN(C)C)C(=O)[C@@H](C)Oc1ccc2c(-c3ccc(NC(=O)CCCCCCCCCCC[P+](c4ccccc4)(c4ccccc4)c4ccccc4)cc3Cl)cc(=O)oc2c1.[Cl-]` [Compound [I], [12-[3-chloro-4-[7-[(1R)-2-[2-[2-(dimethylamino)ethylamino]-2-oxo-ethyl]-ethyl-amino]-1-methyl-2-oxo-ethoxy]-2-oxo-chromen-4-yl]anilino]-12-oxo-dodecyl]-triphenyl-phosphonium chloride], in the data set with MCF-7 cells [1] (Homo sapiens, MCF7, 2.5 μM, FIG. 1A, read-out: inhibition of MCF-7 spheres), the inhibition at 2.5 µM is more than 50%. The IC50 with MCF-7 cells [1] (Homo sapiens, MCF7, MCF-7 spheres, GraphPad Prism, FIG. 5A) stood at 3200 nM; with MCF-7 cells [3] (Homo sapiens, MCF7, MCF-7 colonies, GraphPad Prism, FIG. 5A), 700 nM; with MDA-MB-231 cells [5] (Homo sapiens, MDA-MB-231 colonies, GraphPad Prism, FIG. 5B), 1500 nM; with MDA-MB-231 cells [7] (Homo sapiens, MDA-MB-231 spheres, GraphPad Prism, FIG. 5B) it was 8200 nM. The MCC in the data set on MCF-7 cells [2] is 1000 nM; in data set [4], approximately 2500 nM. In addition, in the data set with MCF-7 cells [3] (Homo sapiens, MCF7, complete inhibition, FIG. 2B, read-out: concentration from which MCF-7 colony formation is completely inhibited), the IC100 was determined as 2.5 µM. Moreover, the survival at 100 µM in data set [6] (100 μM, read-out: % Alive) is 100%. Also, the mortality at 100 µM in [6] (100 μM, read-out: % Dead) was 0%. For the same compound, the survival at 250 µM in data set [6] (250 μM, read-out: % Alive) worked out at 100%. Besides, the mortality at 250 µM in data set [6] (250 μM, read-out: % Dead) was found to be 0%. Besides, the survival at 500 µM in data set [6] (500 μM, read-out: % Alive) came to 87.5%. Moreover, the mortality at 500 µM in [6] (500 μM, read-out: % Dead) is 12.5%.
On to `CCN(CC(=O)NCCN(C)C)C(=O)[C@@H](C)Oc1ccc2c(-c3ccc(NC(=O)CCCCCCCCCCC[P+](c4ccccc4)(c4ccccc4)c4ccccc4)cc3Cl)cc(=O)oc2c1.[Cl-]` [Compound [I]], for which the metastasis entry in the data set on MDA-MB-231 cells [8] is “targets and prevent cancer metastasis”. The “inhibition of MCF-7 spheres” value in the data set with MCF-7 cells [1] (10 μM, FIG. 1A) was “near complete inhibition”; in the data set on MCF-7 cells [1] (at all concentrations, FIG. 1A) it was “inhibition of MCF-7 spheres at all concentrations”. The “oxygen consumption rate (OCR)” value with MCF-7 cells [9] (0.5 μM and 1 μM, after 6 days of treatment, FIG. 6A) is “reduction”. Moreover, the basal respiration result in the data set with MCF-7 cells [9] (0.5 μM and 1 μM, after 6 days of treatment, FIG. 6B) is recorded as “decreases”. In addition, the maximal respiration entry in the data set with MCF-7 cells [9] (0.5 μM and 1 μM, after 6 days of treatment, FIG. 6C) is “decreases”. Also, in the data set on MCF-7 cells [9] (0.5 μM and 1 μM, after 6 days of treatment, FIG. 6D), the ATP production result is “decreases”. Further, the mitochondrial respiration entry in the data set on MCF-7 cells [9] (overall conclusion) is given as “specifically inhibits mitochondrial respiration”. Further, the MCF-7 colony formation result in the data set with MCF-7 cells [3] (2D colonies, FIG. 2A) is on record as “significantly decreased”. Moreover, the “effect on colony formation versus sphere formation” value with MCF-7 cells [3] (MCF-7, from IC50 values of Table 1) was “more effective on colony formation, as compared to sphere formation”; in the data set on MDA-MB-231 cells [5] (MDA-MB-231, from IC50 values of Table 1), “more effective on colony formation, as compared to sphere formation”. Besides, the MDA-MB-231 colony formation entry in the data set with MDA-MB-231 cells [5] (2D colonies, FIGS. 4A-4B, **** P<0.0001) is given as “significantly decreases”. For the same compound, the Alive stood at 17 in the data set on chicken embryo (100 μM, of 17 embryos); 16 with chicken embryo (250 μM, of 16 embryos); 14 in the data set with chicken embryo (500 μM, of 16 embryos). The Dead in the data set on chicken embryo (100 μM, of 17 embryos) is on record as 0; in the data set on chicken embryo (250 μM, of 16 embryos) it was 0; in the data set with chicken embryo (500 μM, of 16 embryos) it was 2. The “toxicity towards normal cells” value with chicken embryo (at concentrations several orders of magnitude above those with potent activity, FIG. 9) is “not toxic towards normal cells”. The glycolysis result with MCF-7 cells [10] (FIG. 7B) is listed as “No significant changes”. In addition, the glycolytic capacity result in the data set with MCF-7 cells [10] (FIG. 7C) is “No significant changes”. The glycolytic reserve entry in the data set on MCF-7 cells [10] (FIG. 7D) was “No significant changes”. Also, the “glycolysis (overall conclusion)” value in the data set with MCF-7 cells [10] (FIGS. 7A-7D) is “does not affect glycolysis”. Further, in the data set on MDA-MB-231 cells [11], the tumor growth entry is “potently inhibits tumor growth”. For the same compound, in the data set with MDA-MB-231 cells [7] (FIG. 3A), the “MDA-MB-231 3D mammosphere formation” value is given as “significantly decreased”.
For `C[C@@H](Oc1ccc2c(-c3ccc(F)cc3Cl)cc(=O)oc2c1)C(=O)N1CCC[C@H](C(=O)O)C1` [POLRMT inhibitor], in data set [12], the “mitochondrial DNA expression” value is given as “inhibits mitochondrial DNA expression”. In addition, the anti-tumor effects entry in data set [13] is “strong anti-tumor effects”. For the same compound, the “OXPHOS dysfunction or toxicity” value with mice is on record as “no evidence of OXPHOS dysfunction or toxicity”.
